# From article PMC11232401, “Characterization of antimalarial activity of artemisinin-based hybrid drugs” (Antimicrobial Agents and Chemotherapy, 2024)
# Where two headings read alike, the source gives them in different places.
# Assays:
# [1] = test system: heme (iron II)-initiated β-hematin formation; assay: β-hematin inhibitory activity under reducing condition (R-BHIA); type: biochemical; details: for IC50: mean (95% CI); for Fold changes, IC50 (10 minutes) to IC50 (120 minutes): R-BHIA
# Method: The compounds were dissolved in DMSO and diluted in DMSO to six different concentrations (1.0–32 mM). Hemin (Fe^III[PPIX]Cl) (BioXtra, Sigma-Aldrich) was first dissolved in 0.1 M NaOH and then suspended in an 80:20 vol/vol mixture of DMSO and propionate buffer (0.1 M, pH 5.6) to a stock solution at 8 mM. Reduced glutathione (GSH) was dissolved in 0.1 M NaOH and then adjusted to 10 mM using propionate buffer (0.1 M, pH 5.6). […] Then, 20 µL of the drug was added, and the plates were incubated for 2 h at 37°C. The plastic film was removed after drug incubation, 160 µL propionate buffer (1.0 M, pH 5.6) was added, and plates were incubated for 18 h at 37°C. BHIA under the oxidizing condition (O-BHIA) was prepared in parallel without adding GSH. Controls included wells without drugs and wells containing PBS 1× instead of propionate buffer. Afterward, the plates were centrifuged, the supernatant was discarded, and the pellets of β-hematin crystals were washed twice with pure DMSO and then water. The resulting β-hematin crystals were then dissolved in 200 µL 0.1 M NaOH and diluted to a 1:8 ratio. Aliquots were then transferred into a new plate and read by UV-visible absorbance at […]. Percent of BHIA was calculated in comparison to untreated wells (no drugs), and IC50 was then calculated. Two independent experiments were performed using three replicates of each drug concentration ([46]).
# (§1) Figure S6: A summary of IC50 values derived from β-hematin inhibitory activity (BHIA). Footnotes for table: ^[a,b^] Values are mean and 95% confidence interval of one experiment, each concentration in triplicate. ^[a] Using heme (Fe[II]PPIX[Cl]) as a starting reagent. ^[b] Using hematin (Fe[III]PPIX[OH]) as a starting reagent. ^[c] […] CQ = chloroquine. R-BHIA = reducing β-hematin inhibitory activity. O-BHIA = oxidizing β-hematin inhibitory activity.
# [2] = test system: hematin (iron III)-initiated β-hematin formation; assay: β-hematin inhibitory activity under oxidizing condition (O-BHIA); type: biochemical; details: hematin as starting reagent; mean (95% CI)
# Method: The compounds were dissolved in DMSO and diluted in DMSO to six different concentrations (1.0–32 mM). Hemin (Fe^III[PPIX]Cl) (BioXtra, Sigma-Aldrich) was first dissolved in 0.1 M NaOH and then suspended in an 80:20 vol/vol mixture of DMSO and propionate buffer (0.1 M, pH 5.6) to a stock solution at 8 mM. Reduced glutathione (GSH) was dissolved in 0.1 M NaOH and then adjusted to 10 mM using propionate buffer (0.1 M, pH 5.6). For β-hematin inhibitory activity (BHIA) under the reducing condition (R-BHIA), hemin (10 µL) and GSH (10 µL) were distributed in a 96-well plate and homogenized, and the plates were sealed using a thin plastic film and incubated for 1 h at 37°C. Then, 20 µL of the drug was added, and the plates were incubated for 2 h at 37°C. The plastic film was removed after drug incubation, 160 µL propionate buffer (1.0 M, pH 5.6) was added, and plates were incubated for 18 h at 37°C. BHIA under the oxidizing condition (O-BHIA) was prepared in parallel without adding GSH. Controls included wells without drugs and wells containing PBS 1× instead of propionate buffer. Afterward, the plates were centrifuged, the supernatant was discarded, and the pellets of β-hematin crystals were washed twice with pure DMSO and then water. The resulting β-hematin crystals were then dissolved in 200 µL 0.1 M NaOH and diluted to a 1:8 ratio. Aliquots were then transferred into a new plate and read by UV-visible absorbance at […]. Percent of BHIA was calculated in comparison to untreated wells (no drugs), and IC50 was then calculated. Two independent experiments were performed using three replicates of each drug concentration ([46]).
# as §1
# [3] = In vitro metabolic stability assay in microsomes; type: in vitro ADME; details: for half-life at 1 µM: read-out: Degradation half-life; for microsomal CLint at 1 µM: 0.4 mg/mL
# Method: In vitro microsomal stability assay was performed in duplicate in a 96-well microtiter plate, using a single-point experiment design ([42]). Test compounds (1 µM) were incubated individually in human (pool of 50, mixed gender), rat (pool of 711, male Sprague Dawley), and mouse (pool of 1,634, male CD1) liver microsomes (Xenotech, Kansas, USA) to a final protein concentration of 0.4 mg/mL, suspended in 0.1 M phosphate buffer (pH 7.4). Incubations were started by the addition of NADPH (1 mM) as a cofactor and shaken for 30 min at 37°C. The reactions were quenched by the addition of 300 µL of ice-cold acetonitrile containing an internal standard (carbamazepine, 0.0236 µg/mL) and centrifuged. The supernatant was transferred to a fresh 96-well plate and analyzed by liquid chromatography-tandem mass spectrometry (LC-MS/MS) (Agilent Rapid Resolution HPLC, AB SCIEX 4500 MS). The relative loss of the parent compound over time was monitored, and plots (concentration vs time) were prepared per compound to determine the first-order rate constant for compound depletion. This was in turn used to calculate half-life, in vitro intrinsic clearance (Clint), and in vivo hepatic extraction ratio ([43]).
# [4] = reductive step 10 minutes, read-out: IC50 (µM) values of R-BHIA using heme (iron II), 10 minutes
# [5] = reductive step 120 minutes, read-out: IC50 (µM) values of R-BHIA using heme (iron II), 120 minutes
# [6] = both sexes, pH 7.4, human liver microsomes
# [7] = both sexes, human liver microsomes, pH 7.4
# [8] = male, CD1, pH 7.4, mouse liver microsomes
# [9] = male, CD1, mouse liver microsomes, pH 7.4
# [10] = male, Sprague Dawley, pH 7.4, rat liver microsomes
# [11] = male, Sprague Dawley, rat liver microsomes, pH 7.4
Compound,"IC50 [1, 4] [µM]","IC50 [1, 5] [µM]",IC50 [2] [µM],"half-life at 1 µM [3, 6] [min]","microsomal CLint at 1 µM [3, 7] [µL/min/mg]",Drug remaining after 30 min ([3]; human liver microsomes) [%],"half-life at 1 µM [3, 8] [min]","microsomal CLint at 1 µM [3, 9] [µL/min/mg]","half-life at 1 µM [3, 10] [min]","microsomal CLint at 1 µM [3, 11] [µL/min/mg]",Drug remaining after 30 min ([3]; mouse liver microsomes) [%],Drug remaining after 30 min ([3]; rat liver microsomes) [%],"Fold changes, IC50 (10 minutes) to IC50 (120 minutes) [1]","Fold changes, IC50 (10 minutes) to IC50 (120 minutes) ([1]; listed as LH70 (1))"
"C[C@H]1[C@@H](O)O[C@@H]2O[C@@]3(C)CC[C@H]4[C@H](C)CC[C@@H]1[C@@]24OO3 [DHA, dihydroartemisinin, reference compound]",262,161,> 1000,,,,,,,,,,,
COCCOCCOCCOCCn1c(-c2ccc(-n3cc(-c4ccc(OC5OC6OC7(C)CCC8C(C)CCC(C5C)C68OO7)cc4)nn3)cc2)nc2ccccc21 (centres unmarked) [Hybrid 1],609,284,> 1000,5,379,1,7,240,9,186,6,10,3,2.1
CC1CCC2C(C)C(OC(=O)CCC(=O)OCCNc3ccnc4cc(Cl)ccc34)OC3OC4(C)CCC1C32OO4 (centres unmarked) [Hybrid 2],,,,4,479,0.3,6,275,5,376,4,1,,
